From US6214860A, “Synergistic antitumor composition containing a naphthalensulphonic acid derivative” (Pharmacia & Upjohn S.p.A., priority 1997, dated 2001)
Values joined by “and” are separate entries in the source; they are usually repeats but may differ in a detail not shown here. Equal values may be shown once. Where a name gives a salt, the structure may show the parent alone. Read-outs that look alike come from different tables or passages of the source.

Columns and labels:
[1] = days 1, 4, 7 and 11
Experimental: Mice C57BL/6 were implanted with M5076 murine reticulosarcoma cells. PNU 145156E was administered ip 2 h prior to cytotoxic drugs administered iv starting treatment 24 h after tumor implant. Treatments were performed at days 1, 4, 7 and 11.
The toxicological evaluation was performed in terms of body weight loss and spleen and liver reduction.

[2] = test system: M5076 murine reticulosarcoma cells; assay: In vivo antitumor activity in mice implanted with M5076 tumor cells; set-up: species or system Mice C57BL/6; settings: days 1, 4, 7 and 11; for A.U.C. % inhib. (inhibition of tumor growth): one week after last treatment; for TGD (tumor growth delay): time to reach one gram
Experimental: (§1) The combinations were assayed in vitro on M5076 murine reticulosarcoma cells and in vivo on the same tumor cells implanted intramuscularly.
The antitumor activity was calculated in terms of:
% AUC: inhibition of tumor growth
T/C %: percentage of median increase in survival time
The A.U.C. (area under the curve) of the tumor growth was calculated by using the trapezoidal method, and is referred to the measurement of tumor growth performed one week after the last treatment. The percentage of inhibition (% A.U.C.) was calculated using the following formula: [formula]
The percentage of increase in survival time (T/C% ) was calculated using the following formula: [formula]
Mice were monitored according to guidelines and sacrificed when tumor weight exceeded 10% body weight. Tumor growth delay (TGD) is the time, in days, to reach one gram of tumor weight in treated animals as compared to control animals.
Evaluation of statistical significance was performed as follows: Student's Test for cytotoxic activity, Two-Way Anova for increase in survival time (T/C %) with combined treatment in comparison to the increase exerted separately by the two drugs, Tukey Test for tumor weight reduction (AUC % inhibition) with combined treatment in comparison to the reduction exerted separately by the two drugs.
The criterion for statistical significance was the 0.01 level ( )

[3] = test system: M5076 murine reticulosarcoma cells; assay: In vitro antiproliferative activity (% cell growth vs untreated control); type: cell-based; settings: for antiproliferative activity in the presence of PNU 145156E: in words, PNU 145156E 50000 ng/ml vs 0 ng/ml
Experimental: as §1

[4] = 9AC 2.5 mg/kg iv, combination: + PNU 145156E 100 mg/kg ip 2 h prior
[5] = 9AC 3 mg/kg iv, combination: + PNU 145156E 100 mg/kg ip 2 h prior
[6] = 9AC 3.5 mg/kg iv, combination: + PNU 145156E 100 mg/kg ip 2 h prior
[7] = cytotoxic 40 ng/ml + PNU 145156E 50000 ng/ml, 72 h, 37° C.
[8] = CIS 6 mg/kg iv, combination: + PNU 145156E 100 mg/kg ip 2 h prior
[9] = CPT-11 60 mg/kg iv, combination: + PNU 145156E 100 mg/kg ip 2 h prior
[10] = TX 33 mg/kg iv, combination: + PNU 145156E 100 mg/kg ip 2 h prior
[11] = TX 40 mg/kg iv, combination: + PNU 145156E 100 mg/kg ip 2 h prior
[12] = PNU 145156E alone 100 mg/kg ip, single-agent arm of each of Tables 2-6

CC[C@@]1(O)C(=O)OCc2c1cc1n(c2=O)Cc2cc3c(N)cccc3nc2-1 [9-AC, 9-aminocamptothecin]
Toxic/total mice [1, 4]: 0/10 | Toxic/total mice [1, 5]: 0/10 | Toxic/total mice [1, 6]: 1/10 | T/C % (median increase in survival time) [2, 4]: 121% | Tumor weight [2, 4]: 2.4 ± 0.9 gr | A.U.C. % inhib. (inhibition of tumor growth) [2, 4]: 45% | TGD (tumor growth delay) [2, 4]: 5 days | T/C % (median increase in survival time) [2, 5]: 125% | Tumor weight [2, 5]: 2.13 ± 0.8 gr | A.U.C. % inhib. (inhibition of tumor growth) [2, 5]: 48% | TGD (tumor growth delay) [2, 5]: 6 days | T/C % (median increase in survival time) [2, 6]: 128% | Tumor weight [2, 6]: 1.58 ± 0.6 gr | A.U.C. % inhib. (inhibition of tumor growth) [2, 6]: 68% | TGD (tumor growth delay) [2, 6]: 8 days | activity at 0.0025 µg/mL ([3]; Mus musculus, M5076, 72 h, cytotoxic 2.5 ng/ml, PNU 145156E 0 ng/ml, 72 h, 37° C., read-out: % cell growth ± S.E.): 88 ± 10% | activity at 0.01 µg/mL ([3]; Mus musculus, M5076, 72 h, cytotoxic 10 ng/ml, PNU 145156E 0 ng/ml, 72 h, 37° C., read-out: % cell growth ± S.E.): 28 ± 2% | activity at 0.04 µg/mL ([3]; Mus musculus, M5076, 72 h, cytotoxic 40 ng/ml, PNU 145156E 0 ng/ml, 72 h, 37° C., read-out: % cell growth ± S.E.): 7 ± 2% | % cell growth ± S.E. ([3]; cytotoxic 2.5 ng/ml + PNU 145156E 50000 ng/ml, 72 h, 37° C.): 76 ± 6% | % cell growth ± S.E. ([3]; cytotoxic 10 ng/ml + PNU 145156E 50000 ng/ml, 72 h, 37° C.): 29 ± 9% | % cell growth ± S.E. [3, 7]: 8 ± 3% | antiproliferative activity in the presence of PNU 145156E [3]: unchanged in the presence of PNU 145156E

N.N.[Cl][Pt][Cl] [CIS, cisplatin]
T/C % (median increase in survival time) [2, 8]: 130% | Tumor weight [2, 8]: 1.1 ± 0.1 gr | A.U.C. % inhib. (inhibition of tumor growth) [2, 8]: 75% | TGD (tumor growth delay) [2, 8]: 11 days | % cell growth ± S.E. ([3]; cytotoxic 8 ng/ml + PNU 145156E 50000 ng/ml, 72 h, 37° C.): 83 ± 7% | % cell growth ± S.E. ([3]; cytotoxic 8 ng/ml, PNU 145156E 0 ng/ml, 72 h, 37° C.): 91 ± 3% | % cell growth ± S.E. [3, 7]: 46 ± 3% | % cell growth ± S.E. ([3]; cytotoxic 40 ng/ml, PNU 145156E 0 ng/ml, 72 h, 37° C.): 52 ± 7% | % cell growth ± S.E. ([3]; cytotoxic 200 ng/ml + PNU 145156E 50000 ng/ml, 72 h, 37° C.): 4 ± 1% | % cell growth ± S.E. ([3]; cytotoxic 200 ng/ml, PNU 145156E 0 ng/ml, 72 h, 37° C.): 9 ± 5% | antiproliferative activity in the presence of PNU 145156E [3]: unchanged in the presence of PNU 145156E

CCc1c2c(nc3ccc(OC(=O)N4CCC(N5CCCCC5)CC4)cc13)-c1cc3c(c(=O)n1C2)COC(=O)[C@]3(O)CC [CPT-11, irinotecan]
Toxic/total mice [1, 9]: 0/8 | T/C % (median increase in survival time) [2, 9]: 215% | Tumor weight [2, 9]: 0.05 ± 0.2 gr | A.U.C. % inhib. (inhibition of tumor growth) [2, 9]: 100% | TGD (tumor growth delay) [2, 9]: 34 days

CC(=O)O[C@H]1C(=O)[C@@]2(C)[C@H]([C@H](OC(=O)c3ccccc3)[C@]3(O)C[C@H](OC(=O)[C@H](O)[C@@H](NC(=O)c4ccccc4)c4ccccc4)C(C)=C1C3(C)C)[C@]1(OC(C)=O)CO[C@@H]1C[C@@H]2O [PACLITAXEL, paclitaxel]
Toxic/total mice [1, 10]: 0/10 | Toxic/total mice [1, 11]: 0/10 | T/C % (median increase in survival time) [2, 10]: 108% | Tumor weight [2, 10]: 2.34 ± 0.9 gr | A.U.C. % inhib. (inhibition of tumor growth) [2, 10]: 77% | TGD (tumor growth delay) [2, 10]: 8 days | T/C % (median increase in survival time) [2, 11]: 118% | Tumor weight [2, 11]: 1.3 ± 0.7 gr | A.U.C. % inhib. (inhibition of tumor growth) [2, 11]: 93% | TGD (tumor growth delay) [2, 11]: 9 days | activity at 0.00625 µg/mL ([3]; Mus musculus, M5076, cytotoxic 6.25 ng/ml, PNU 145156E 0 ng/ml, 72 h, 37° C., read-out: % cell growth ± S.E.): 89 ± 1% | activity at 0.025 µg/mL ([3]; Mus musculus, M5076, cytotoxic 25 ng/ml, PNU 145156E 0 ng/ml, 72 h, 37° C., read-out: % cell growth ± S.E.): 50 ± 7% | activity at 0.1 µg/mL ([3]; Mus musculus, M5076, cytotoxic 100 ng/ml, PNU 145156E 0 ng/ml, 72 h, 37° C., read-out: % cell growth ± S.E.): 1 ± 1% | % cell growth ± S.E. ([3]; cytotoxic 6.25 ng/ml + PNU 145156E 50000 ng/ml, 72 h, 37° C.): 87 ± 14% | % cell growth ± S.E. ([3]; cytotoxic 25 ng/ml + PNU 145156E 50000 ng/ml, 72 h, 37° C.): 43 ± 1% | % cell growth ± S.E. ([3]; cytotoxic 100 ng/ml + PNU 145156E 50000 ng/ml, 72 h, 37° C.): 2 ± 0% | antiproliferative activity in the presence of PNU 145156E [3]: unchanged in the presence of PNU 145156E

Cn1cc(NC(=O)Nc2cc(C(=O)Nc3cc(C(=O)Nc4ccc5cc(S(=O)(=O)O)cc(S(=O)(=O)O)c5c4)n(C)c3)n(C)c2)cc1C(=O)Nc1cc(C(=O)Nc2ccc3cc(S(=O)(=O)O)cc(S(=O)(=O)O)c3c2)n(C)c1 [PNU 145156E, 7'-(carbonyl-bis(imino-N-methyl-4,2-pyrrolecarbonyl-imino(N-methyl-4,2-pyrrole)carbonylimino))bis(1,3-naphtalen-disulfonic acid)tetrasodium salt]
Toxic/total mice [1, 12]: 0/10 and 0/9 and 0/8 | T/C % (median increase in survival time) [2, 12]: 121% and 141% and 148% | Tumor weight [2, 12]: 1.45 ± 0.7 gr and 2.63 ± 0.8 gr and 1.4 ± 0.7 gr and 1.7 ± 0.65 gr | A.U.C. % inhib. (inhibition of tumor growth) [2, 12]: 88% and 85% and 90% and 75% | TGD (tumor growth delay) [2, 12]: 9 days and 10 days and 16 days | activity at 50 µg/mL ([3]; Mus musculus, M5076, 72 h, PNU 145156E 50000 ng/ml alone (cytotoxic 0 ng/ml), 72 h, 37° C., read-out: % cell growth ± S.E.): 85% | % cell growth ± S.E. ([3]; PNU 145156E 50000 ng/ml alone (cytotoxic 0 ng/ml), 72 h, 37° C., 4320 min): 88 ± 3% and 92 ± 5% and 92 ± 14% and 89 ± 19%

CCc1c2c(nc3ccc(O)cc13)-c1cc3c(c(=O)n1C2)COC(=O)[C@]3(O)CC [SN-38]
activity at 0.0065 µg/mL ([3]; Mus musculus, M5076, 72 h, cytotoxic 6.5 ng/ml, PNU 145156E 0 ng/ml, 72 h, 37° C., read-out: % cell growth ± S.E.): 75 ± 5% | activity at 0.0125 µg/mL ([3]; Mus musculus, M5076, 72 h, cytotoxic 12.5 ng/ml, PNU 145156E 0 ng/ml, 72 h, 37° C., read-out: % cell growth ± S.E.): 19 ± 2% | activity at 0.035 µg/mL ([3]; Mus musculus, M5076, 72 h, cytotoxic 35 ng/ml, PNU 145156E 0 ng/ml, 72 h, 37° C., read-out: % cell growth ± S.E.): 5 ± 1% | % cell growth ± S.E. ([3]; cytotoxic 6.5 ng/ml + PNU 145156E 50000 ng/ml, 72 h, 37° C.): 74 ± 7% | % cell growth ± S.E. ([3]; cytotoxic 12.5 ng/ml + PNU 145156E 50000 ng/ml, 72 h, 37° C.): 25 ± 7% | antiproliferative activity in the presence of PNU 145156E [3]: unchanged in the presence of PNU 145156E
